Series [1] concerns Mouse Liver. The settings on record: chronic study, mouse liver; ref ToxRefDB; cited from earlier work.
The target of series [2] is T1, PPARG (peroxisome proliferator-activated receptor gamma) (Homo sapiens, UniProt P37231).
T1 construct: expressed in transfected cells; host or cells: HepG2
T1 sequence (P37231 1-505): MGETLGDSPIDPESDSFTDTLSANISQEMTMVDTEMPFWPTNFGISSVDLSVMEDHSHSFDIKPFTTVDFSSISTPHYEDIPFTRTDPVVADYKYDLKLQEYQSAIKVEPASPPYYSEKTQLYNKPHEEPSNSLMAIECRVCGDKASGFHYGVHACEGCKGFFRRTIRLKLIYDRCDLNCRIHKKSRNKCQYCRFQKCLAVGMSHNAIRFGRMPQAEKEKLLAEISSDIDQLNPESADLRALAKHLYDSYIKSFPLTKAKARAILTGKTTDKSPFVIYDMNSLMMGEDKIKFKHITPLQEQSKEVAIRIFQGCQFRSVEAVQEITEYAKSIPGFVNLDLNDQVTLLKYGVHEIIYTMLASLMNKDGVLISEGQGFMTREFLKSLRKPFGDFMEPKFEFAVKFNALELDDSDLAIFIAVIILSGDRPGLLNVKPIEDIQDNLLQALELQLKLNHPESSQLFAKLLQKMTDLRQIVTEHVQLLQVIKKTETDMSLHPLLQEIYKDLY
The series can be described thus: ATG_PPARg_TRANS: Factorial reporter gene assay (HepG2). Type of series: cell-based. The settings on record: HepG2 reporter. In short, it runs like this:
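HepG2 cells transfected with multiplexed reporter libraries: cis-acting binding-site reporters (CIS) and a one-hybrid nuclear-receptor trans system (TRANS). Chemicals tested at seven concentrations, starting at the maximum tolerated concentration with three-fold serial dilutions.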
Background: Reporter assays use an easily measured gene product as a stand-in for the process of interest.

Series [3] concerns Mouse Liver. The following applies: chronic study, mouse liver; ref ToxRefDB; cited from earlier work. This is another data set of the same source.
Series [4] deals with Rat Liver. The following applies: chronic study, rat liver; ref ToxRefDB; cited from earlier work.
In series [5] the test system is Rat Liver. The following applies: chronic study, rat liver; ref ToxRefDB; cited from earlier work. This is another data set of the same source.
The target of series [6] is T2, PXR (NR1I2) (Homo sapiens, UniProt O75469).
T2 sequence (O75469 1-434): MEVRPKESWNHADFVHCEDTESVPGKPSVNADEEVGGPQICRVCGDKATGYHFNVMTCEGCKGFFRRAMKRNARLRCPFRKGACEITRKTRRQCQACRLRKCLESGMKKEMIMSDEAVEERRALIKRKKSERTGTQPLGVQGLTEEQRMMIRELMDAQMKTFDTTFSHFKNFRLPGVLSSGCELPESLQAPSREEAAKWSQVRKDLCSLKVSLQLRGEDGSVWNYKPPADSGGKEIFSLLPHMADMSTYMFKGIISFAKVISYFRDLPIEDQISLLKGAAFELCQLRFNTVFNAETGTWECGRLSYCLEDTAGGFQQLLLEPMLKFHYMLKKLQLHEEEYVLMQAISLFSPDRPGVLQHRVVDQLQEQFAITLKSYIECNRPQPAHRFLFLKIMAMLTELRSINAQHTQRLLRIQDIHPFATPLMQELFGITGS
The series can be described thus: NVS_NR_hPXR: Human PXR Fluormone PXR (SXR) green (cell-free HTS). Format: binding. The method in brief: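 Responses were normalized to same-plate solvent controls as percent of neutral control. AC50 values came from Hill-equation fits of concentration-response curves.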

Series [7] has as its system Mouse Liver. The settings on record: chronic study, mouse liver; ref ToxRefDB; cited from earlier work. The source holds these as a separate data set.
The subject of series [8] is Rat Liver. The following applies: chronic study, rat liver; ref ToxRefDB; cited from earlier work. This is another data set of the same source.
Series [9] relates to CYP3A4. The series can be described thus: CLZD_CYP3A4: Change in expression of CYP3A4 (primary human hepatocytes). Format: cell-based. The settings on record: 24 hr. The method in brief:
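Primary human hepatocytes exposed to 5 concentrations (0.004-40 µM) for 6, 24 or 48 hr; transcript levels measured by multiplexed quantitative nuclease protection assay. Markers of nuclear receptor pathways: CYP1A1 (AhR), CYP2B6 and ABCB1 (CAR), CYP3A4 (PXR).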

For series [10], the target named is T3, PPARg (PPARG) (Homo sapiens, UniProt P37231).
T3 sequence (P37231 1-505): T1 sequence (P37231 1-505)
The series can be described thus: NCGC_PPARg_Agonist: GAL4 BLAM Reporter gene assay: PPARg. Format: cell-based. On the set-up: expressed in transfected cells; host or cells: HEK293. The following applies: agonist mode. The method, then: These assays measure binding constants and enzyme inhibition values for nuclear receptors. The targets include [drawing 67] , [drawing 68] , [drawing 69] , [drawing 70] , [drawing 71] , [drawing 72] , [drawing 73] , [drawing 74] , [drawing 75] and [drawing 76] . Each of the nuclear receptor targets was measured in agonist mode. Assays were run at the NIH Chemical Genomics Center (Rockville, MD).
Cell-based HTS Assays: These assays measuring binding constants and enzyme inhibition values for nuclear receptors. The targets include AR, ER, FXR, LXR, PPARα, PPARδ, PPARγ, RXRα, RXRβ and PXR. Each of the nuclear receptor targets was measured in both agonist and antagonist mode, but the antagonist data is still undergoing analysis due to possible interference between cytotoxicity and assay activity, so antagonist mode data were not used in the present analysis. Assays were run at the NIH Chemical Genomics Center (Rockville, MD) as part of the Tox21 collaboration. […] The R^2 was required to be ≥0.5. Values where only the highest concentration exceeded 50% activity were excluded to eliminate weak or false positives. Detailed description of the methods, data and analysis methods for this dataset will be presented in a separate publication.

Series [11] has as its target T4, PXR Human (NR1I2) (Homo sapiens, UniProt O75469).
T4 sequence (O75469 146-434 limits assumed): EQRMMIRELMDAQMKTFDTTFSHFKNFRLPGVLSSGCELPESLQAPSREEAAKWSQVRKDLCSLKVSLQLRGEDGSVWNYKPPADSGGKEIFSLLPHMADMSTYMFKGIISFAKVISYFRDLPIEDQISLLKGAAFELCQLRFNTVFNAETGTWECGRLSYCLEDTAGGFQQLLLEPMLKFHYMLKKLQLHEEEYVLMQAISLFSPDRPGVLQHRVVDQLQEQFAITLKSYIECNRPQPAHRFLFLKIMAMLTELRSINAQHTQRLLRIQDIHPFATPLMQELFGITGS
In words: NCGC_PXR_Agonist_human: GAL4 BLAM Reporter gene assay: PXR Human. Format: cell-based. The following applies: agonist mode. The method in brief: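 Cell-based GAL4 beta-lactamase reporter assays run at NIH Chemical Genomics Center as part of Tox21. Curve fits required R^2 ≥0.5; values where only the highest concentration exceeded 50% activity were excluded.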

In the case of `CCC(C)(C)C(=O)OC1=C(c2cc(Cl)cc(Cl)c2)C(=O)OC12CCCCC2` [r285], the CHR_Mouse_Liver_2_PreneoplasticLesion in series [1] is given as 6. The ATG_PPARg_TRANS in series [2] was found to be 5.444. Besides, the CHR_Mouse_Liver_1_AnyLesion in series [3] is 6. Also, the CHR_Rat_Liver_1_AnyLesion in [4] was 6. Moreover, the CHR_Rat_Liver_2_PreneoplasticLesion in [5] is listed as 6. The molecule also yielded an NVS_NR_hPXR in series [6] of 6.367. Besides, the CHR_Mouse_Liver_3_NeoplasticLesion in [7] is listed as 6. In [8], the CHR_Rat_Liver_3_NeoplasticLesion is 0. The CLZD_CYP3A4_24 in [9] stood at 6.36. This molecule came in with an NCGC_PPARg_Agonist in series [10] of 5.556.

In the case of `N#CSCSc1nc2ccccc2s1` [r289], the NVS_NR_hPXR in [6] was 6.169. This molecule also showed an NCGC_PXR_Agonist_human in [11] of 4.409. The same molecule yielded an NCGC_PPARg_Agonist in series [10] of 4.706.

These data come from PMC3038857, “Using Nuclear Receptor Activity to Stratify Hepatocarcinogens” (PLoS ONE, 2011).
